Experimental data reported in patent publication US20260251650A1, “LATERAL FLOW DEVICE FOR […]'S DISEASE USING THE T14 PEPTIDE” (Neuro-Bio Ltd, priority 2022, published 2026).

How the values were obtained:
[1] = tested on: anti-T14 antibody 40 nm gold conjugates; test: Inhibition lateral flow test (half dipstick), peptide dotted on membrane; format: binding, rabbit; conditions: peptide dotted at 1, 0.5 and 0.25 mg/ml on CN180 membrane, FIG. 10
Protocol: (§1) The detector reagent was a 40 nm gold particle which is passively conjugated to the antibodies. Conjugates were prepared for: AB16 (rabbit polyclonal), AB117 (rabbit monoclonal) and AB104 (rabbit monoclonal).
(§2) In this format, a gold conjugate is in liquid form (in the well) rather than dry enabling high throughput of the test conditions. The test line is “dotted” onto the membrane by pipette to facilitate evaluation of a range of conditions.
The nitrocellulose membrane was CN180.
(§3) • A) Inhibition Assay: T14 peptide • T30 peptide • B) Sandwich Assay: Rabbit polyclonal, AB16 • Rabbit monoclonal, AB117 • Rabbit monoclonal, AB104 • Rabbit monoclonal, AB102
Peptide (T14 or T30) was diluted to 1, 0.5 and 0.25 mg/ml in deionised water. The peptide was “dotted” onto CN180 nitrocellulose membrane (1 μl at each concentration) and the membrane dried for 15 minutes at 37° C. The goat anti-rabbit antibody was applied to the membrane as a control line.
• (i) 20 μl gold conjugate (neat) and 20 μl TBST (Tris buffered saline 1% Tween 20) added to Well 1; • (ii) The dipstick was added to Well 1; • (iii) The dipstick was run to completion (no liquid remaining); and • (iv) The dipstick was added to Well 2 containing 20 μl TBST only to wash the test strip.

[2] = tested on: anti-T14 antibodies (conjugate and test line); test: Sandwich lateral flow test (half dipstick), peptide detection; format: binding, rabbit; conditions: peptide at 0.1 mg/ml, FIG. 11
Protocol: as §1, §2, §3
Each antibody was “dotted” onto CN180 membrane (1 μl neat, i.e. 1 mg/ml, concentration) and the membrane dried for 15 mins at 37° C. The goat anti-rabbit antibody was applied to the membrane as a control line. Conjugate and test line antibody combinations were then evaluated in a matrix study in the lateral flow format.
• (i) 10 μl peptide (either T14 or T30 at 0.1 mg/ml) and 10 μl TBST (Tris buffered saline 1% Tween 20) added to Well 1; • (ii) The dipstick was added to Well 1; • (iii) The dipstick was run to completion (no liquid remaining); • (iv) The dipstick was added to Well 2 containing 20 μl conjugate; • (v) The dipstick was run to completion (no liquid remaining); and • (vi) The dipstick was added to Well 3 containing 20 μl TBST.

Sequence | detection of peptide by inhibition LFT [1] | detection of peptide by sandwich LFT [2]
AEFHRWSSYMVHWK (listed as Homo sapiens) [T14, 14 amino acid peptide derived from the C-terminus of acetylcholinesterase; biomarker] | able to detect | able to detect
KAEFHRWSSYMVHWKNQFDHYSKQDRCSDL (KAEFHRWSSYMVHWKNQFHDYSKQDRCSDL; listed as Homo sapiens) [T30, last 30 amino acid residues of tailed acetylcholinesterase] | able to detect | able to detect
